One assay concerns Rhizoctonia solani (Rs). The experiment in a line: Growth inhibition assay of fungal pathogens, Rs. The format is cell-based. To be noted: 48 h.
In the next assay the target is human (hACC2) (Homo sapiens, UniProt O00763). Description: In vitro ACC inhibition assay (ADP-Glo), hACC2. In kind it is biochemical. To be noted: 5 nM ACC2, 20 μM ATP, 20 μM acetyl-CoA. As to the method:
The detailed procedure is as follows. […] 10 μL ADP glo reagent was added. […] 20 μL kinase detection reagent was added.
(ADP-Glo first removes unused ATP, then detects ADP through luciferase.)

The test system of assay [1] is Phytophthora capsici (Pc). Description: Growth inhibition assay of fungal pathogens, Pc. The format is cell-based. As to conditions: 48 h. The method, boiled down: (§1)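 Pathogen growth in 17% V8 broth is measured by OD600 at 24 and 48 hours, after blank subtraction, in the presence of compound at 50, 10 and 2 ppm or 2, 0.4 and 0.08 ppm. Inhibition in percent comes from 48-hour readings against the DMSO control.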

In another assay the test system is Diplodia maydis (Dm). The experiment in a line: Growth inhibition assay of fungal pathogens, Dm. In kind it is cell-based. As to conditions: Stenocarpella maydis, 48 h. Summed up: as §1
A further assay has as its system Botrtyis cinerea (Bc). Description: Growth inhibition assay of fungal pathogens, Bc. In kind it is cell-based. As to conditions: 48 h. The method, boiled down: as §1
The test system of another assay is C. albicans. The experiment in a line: Antifungal Activity Assay (broth microtiter MIC), C. albicans. In kind it is cell-based, Candida albicans. As to conditions: Candida albicans, ATCC90028, 48 h. Summed up: (§2)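 Broth microdilution per CLSI M27-A3 in RPMI 1640+MOPS, inoculum 2.5×10^3 CFU/mL final from overnight Sabouraud dextrose agar cultures at 35° C. Compounds diluted from DMSO stock to 128 μg/mL in water. MIC read visually versus growth control at 48 h.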

Assay [2] has as its system Fusarium virguliforme (Fv). The experiment in a line: Growth inhibition assay of fungal pathogens, Fv. The format is cell-based. To be noted: 48 h. Summed up: as §1
A further assay relates to C. parapsilosis. The experiment in a line: Antifungal Activity Assay (broth microtiter MIC), C. parapsilosis. The format is cell-based, Candida parapsilosis. To be noted: Lodderomyces parapsilosis, ATCC22019, 48 h. Summed up: as §2
Another assay deals with C. krusei. The experiment in a line: Antifungal Activity Assay (broth microtiter MIC), C. krusei. The format is cell-based, Candida krusei. As to conditions: Pichia kudriavzevii, ATCC6258, 48 h. Summed up: as §2
The mark [3] stands for this setting: read-out: Concentration at 90% Inhibition Rs, Rhizoctonia solani, mycelial plugs, growth inhibition at 48 hours vs 2% DMSO control.
[4] abbreviates: read-out: Concentration at 90% Inhibition Rs, Rhizoctonia solani, mycelial plugs, growth inhibition vs 2% DMSO control at 48 hours.
[5] abbreviates: read-out: Concentration at 90% Inhibition Pc, Phytophthora capsici, growth inhibition at 48 hours vs 2% DMSO control.
The mark [6] stands for this setting: read-out: Concentration at 90% Inhibition Pc, Phytophthora capsici, growth inhibition vs 2% DMSO control at 48 hours.
The mark [7] stands for this setting: read-out: Concentration at 90% Inhibition Dm, Diplodia maydis, growth inhibition at 48 hours vs 2% DMSO control.
The mark [8] stands for this setting: read-out: Concentration at 90% Inhibition Dm, Diplodia maydis, growth inhibition vs 2% DMSO control at 48 hours.
Where [9] appears, read: read-out: Concentration at 90% Inhibition Bc, Botrtyis cinerea, growth inhibition at 48 hours vs 2% DMSO control.
Setting [10] is: read-out: Concentration at 90% Inhibition Bc, Botrtyis cinerea, growth inhibition vs 2% DMSO control at 48 hours.
Setting [11] is: read-out: MIC, C. albicans ATCC 90028, Table 3a, 3 replicates, MIC recorded at 48 h.
Where [12] appears, read: read-out: MIC, C. albicans ATCC 90028, Table 3b (additional results), 3 replicates, MIC recorded at 48 h.
Setting [13] is: read-out: Concentration at 90% Inhibition Fv, Fusarium virguliforme, growth inhibition at 48 hours vs 2% DMSO control.
The mark [14] stands for this setting: read-out: Concentration at 90% Inhibition Fv, Fusarium virguliforme, growth inhibition vs 2% DMSO control at 48 hours.
Where [15] appears, read: read-out: MIC, C. parapsilosis ATCC 22019, Table 3a, 3 replicates, MIC recorded at 48 h.
[16] abbreviates: read-out: MIC, C. parapsilosis ATCC 22019, Table 3b (additional results), 3 replicates, MIC recorded at 48 h.
The mark [17] stands for this setting: read-out: MIC, C. krusei ATCC 6258, Table 3a, 3 replicates, MIC recorded at 48 h.
Setting [18] is: read-out: MIC, C. krusei ATCC 6258, Table 3b (additional results), 3 replicates, MIC recorded at 48 h.

Converted amounts (≈) assume the structure as drawn. Like-named read-outs stand apart in the source and are kept apart here. Some results are limits rather than exact numbers.

In general, IC50 refers to the point on the concentration scale where inhibition reaches its midpoint. Read a low IC50 as greater potency in that assay. As usually defined, the MIC is the lowest concentration found to suppress growth.

Chain of human (hACC2) (O00763 whole entry): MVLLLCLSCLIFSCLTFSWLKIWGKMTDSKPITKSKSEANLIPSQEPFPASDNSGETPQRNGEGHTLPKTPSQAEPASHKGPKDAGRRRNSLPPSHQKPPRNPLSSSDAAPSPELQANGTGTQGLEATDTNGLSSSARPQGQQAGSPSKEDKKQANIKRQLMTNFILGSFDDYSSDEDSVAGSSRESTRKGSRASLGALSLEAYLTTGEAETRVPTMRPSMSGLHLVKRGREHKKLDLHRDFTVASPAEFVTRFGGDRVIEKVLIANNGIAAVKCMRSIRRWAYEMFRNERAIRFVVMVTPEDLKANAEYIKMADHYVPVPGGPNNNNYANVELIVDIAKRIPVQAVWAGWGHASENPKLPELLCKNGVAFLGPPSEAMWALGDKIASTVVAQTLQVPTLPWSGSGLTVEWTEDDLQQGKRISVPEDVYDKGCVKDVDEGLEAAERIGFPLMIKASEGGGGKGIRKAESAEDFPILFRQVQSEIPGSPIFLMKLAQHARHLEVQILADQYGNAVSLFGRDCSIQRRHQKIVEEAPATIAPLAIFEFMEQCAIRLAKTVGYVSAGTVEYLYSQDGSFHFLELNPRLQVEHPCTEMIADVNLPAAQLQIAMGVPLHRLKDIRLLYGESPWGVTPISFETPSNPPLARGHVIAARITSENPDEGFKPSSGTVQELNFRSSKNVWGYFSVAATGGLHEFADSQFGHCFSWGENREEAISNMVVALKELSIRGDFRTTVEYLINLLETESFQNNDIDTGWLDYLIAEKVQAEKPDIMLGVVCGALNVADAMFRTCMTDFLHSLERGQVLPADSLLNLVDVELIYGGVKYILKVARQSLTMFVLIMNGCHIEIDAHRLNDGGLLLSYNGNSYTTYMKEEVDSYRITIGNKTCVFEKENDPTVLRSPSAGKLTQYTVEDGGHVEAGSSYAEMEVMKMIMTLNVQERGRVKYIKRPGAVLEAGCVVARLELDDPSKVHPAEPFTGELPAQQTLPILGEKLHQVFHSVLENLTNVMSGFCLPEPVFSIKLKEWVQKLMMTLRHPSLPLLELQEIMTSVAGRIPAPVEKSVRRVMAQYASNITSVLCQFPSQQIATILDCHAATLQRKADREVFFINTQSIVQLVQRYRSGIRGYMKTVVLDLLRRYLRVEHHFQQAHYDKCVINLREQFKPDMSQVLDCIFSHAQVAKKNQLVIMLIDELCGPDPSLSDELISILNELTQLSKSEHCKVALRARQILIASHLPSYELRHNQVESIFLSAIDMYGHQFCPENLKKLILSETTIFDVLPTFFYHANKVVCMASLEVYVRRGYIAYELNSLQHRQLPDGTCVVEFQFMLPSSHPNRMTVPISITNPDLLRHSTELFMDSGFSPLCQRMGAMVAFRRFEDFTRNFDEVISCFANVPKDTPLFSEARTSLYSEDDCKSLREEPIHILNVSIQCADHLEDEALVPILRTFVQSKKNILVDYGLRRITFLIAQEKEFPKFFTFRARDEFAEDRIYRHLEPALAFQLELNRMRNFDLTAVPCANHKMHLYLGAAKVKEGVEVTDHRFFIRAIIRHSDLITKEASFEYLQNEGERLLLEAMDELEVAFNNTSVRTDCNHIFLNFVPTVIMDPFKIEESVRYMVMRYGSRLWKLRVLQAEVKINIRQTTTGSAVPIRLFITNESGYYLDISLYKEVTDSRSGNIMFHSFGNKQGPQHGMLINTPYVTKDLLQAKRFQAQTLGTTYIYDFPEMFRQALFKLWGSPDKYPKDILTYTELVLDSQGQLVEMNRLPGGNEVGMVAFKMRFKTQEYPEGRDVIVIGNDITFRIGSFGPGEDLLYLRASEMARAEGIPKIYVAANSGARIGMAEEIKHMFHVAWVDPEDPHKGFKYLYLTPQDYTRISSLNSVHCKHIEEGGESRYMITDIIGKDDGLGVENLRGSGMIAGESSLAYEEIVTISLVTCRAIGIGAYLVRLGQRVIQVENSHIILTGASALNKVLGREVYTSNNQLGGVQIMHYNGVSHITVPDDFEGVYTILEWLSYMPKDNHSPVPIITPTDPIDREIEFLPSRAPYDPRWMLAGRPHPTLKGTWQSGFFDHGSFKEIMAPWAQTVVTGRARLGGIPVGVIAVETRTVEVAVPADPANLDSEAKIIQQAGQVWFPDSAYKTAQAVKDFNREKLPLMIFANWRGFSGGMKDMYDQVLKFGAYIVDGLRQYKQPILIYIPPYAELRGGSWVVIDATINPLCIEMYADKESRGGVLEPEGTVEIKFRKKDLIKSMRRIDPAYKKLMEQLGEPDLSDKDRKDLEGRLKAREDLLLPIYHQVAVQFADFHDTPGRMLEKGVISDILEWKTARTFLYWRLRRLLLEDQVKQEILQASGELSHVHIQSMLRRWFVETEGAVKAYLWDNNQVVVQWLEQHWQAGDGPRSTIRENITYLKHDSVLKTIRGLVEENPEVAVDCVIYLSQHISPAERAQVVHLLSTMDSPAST

Turning to `CCNC(=O)C(C)(C)n1c(=O)c2c(C)c(-n3nccn3)sc2n(C[C@H](OC2CCOCC2)c2ccccc2OC)c1=O` [Compound I-15, (R)—N-ethyl-2-(1-(2-(2-methoxyphenyl)-2-((tetrahydro-2H-pyran-4-yl)oxy)ethyl)-5-methyl-2,4-dioxo-6-(2H-1,2,3-triazol-2-yl)-1,4-dihydro-thieno[2,3-d]pyrimidin-3(2H)-yl)-2-methylpropanamide], the IC90 with Rhizoctonia solani (Rs) (mycelial plugs, growth inhibition at 48 hours vs 2% DMSO control, read-out: Concentration at 90% Inhibition Rs) was 10 µg/mL (≈ 16.8 µM); with Rhizoctonia solani (Rs) (mycelial plugs, growth inhibition vs 2% DMSO control at 48 hours, read-out: Concentration at 90% Inhibition Rs), over 50 µg/mL; in assay [1] (growth inhibition at 48 hours vs 2% DMSO control, read-out: Concentration at 90% Inhibition Pc), over 50 µg/mL; in assay [1] (growth inhibition vs 2% DMSO control at 48 hours, read-out: Concentration at 90% Inhibition Pc) it was over 50 µg/mL; in the assay on Diplodia maydis (Dm) (Diplodia maydis, growth inhibition at 48 hours vs 2% DMSO control, read-out: Concentration at 90% Inhibition Dm), 10 µg/mL (≈ 16.8 µM); in the assay with Diplodia maydis (Dm) (Diplodia maydis, growth inhibition vs 2% DMSO control at 48 hours, read-out: Concentration at 90% Inhibition Dm), over 50 µg/mL. Besides, the IC90 was 0.4 µg/mL (≈ 0.67 µM) in the assay on Botrtyis cinerea (Bc) (Botrtyis cinerea, growth inhibition at 48 hours vs 2% DMSO control, read-out: Concentration at 90% Inhibition Bc); 0.4 µg/mL (≈ 0.67 µM) in the assay with Botrtyis cinerea (Bc) (Botrtyis cinerea, growth inhibition vs 2% DMSO control at 48 hours, read-out: Concentration at 90% Inhibition Bc); 10 µg/mL (≈ 16.8 µM) in assay [2] (growth inhibition at 48 hours vs 2% DMSO control, read-out: Concentration at 90% Inhibition Fv); over 50 µg/mL in assay [2] (growth inhibition vs 2% DMSO control at 48 hours, read-out: Concentration at 90% Inhibition Fv). Moreover, the IC50 on human (hACC2) (Table 2a) is 1 to 5 nM; against human (hACC2) (Table 2b, additional results), 1 to 5 nM. In addition, the MIC was 0.25 to 1 µg/mL (≈ 0.419 to 1.68 µM) in the assay with C. albicans (Table 3a, ATCC 90028, 3 replicates, MIC recorded at 48 h, read-out: MIC, C. albicans ATCC 90028); 0.25 to 1 µg/mL (≈ 0.419 to 1.68 µM) in the assay with C. albicans (Table 3b (additional results), ATCC 90028, 3 replicates, MIC recorded at 48 h, read-out: MIC, C. albicans ATCC 90028); 0.25 to 1 µg/mL (≈ 0.419 to 1.68 µM) in the assay on C. parapsilosis (Table 3a, ATCC 22019, 3 replicates, MIC recorded at 48 h, read-out: MIC, C. parapsilosis ATCC 22019); 0.25 to 1 µg/mL (≈ 0.419 to 1.68 µM) in the assay with C. parapsilosis (Table 3b (additional results), ATCC 22019, 3 replicates, MIC recorded at 48 h, read-out: MIC, C. parapsilosis ATCC 22019); 0.25 to 1 µg/mL (≈ 0.419 to 1.68 µM) with C. krusei (Table 3a, ATCC 6258, 3 replicates, MIC recorded at 48 h, read-out: MIC, C. krusei ATCC 6258); 0.25 to 1 µg/mL (≈ 0.419 to 1.68 µM) in the assay on C. krusei (Table 3b (additional results), ATCC 6258, 3 replicates, MIC recorded at 48 h, read-out: MIC, C. krusei ATCC 6258).

For the compound `COc1ccccc1[C@H](Cn1c(=O)n(C(C)(C)C(=O)N2CC(O)C2)c(=O)c2c(C)c(-n3nccn3)sc21)OC1CCOCC1` [Compound I-19, (R)-3-(1-(3-hydroxyazetidin-1-yl)-2-methyl-1-oxopropan-2-yl)-1-(2-(2-methoxyphenyl)-2-((tetrahydro-2H-pyran-4-yl)oxy)ethyl)-5-methyl-6-(2H-1,2,3-triazol-2-yl)thieno[2,3-d]pyrimidine-2,4(1H,3H)-dione], the IC90 with Rhizoctonia solani (Rs) (setting [3]) was 10 µg/mL (≈ 16 µM); in the assay with Rhizoctonia solani (Rs) (setting [4]), over 50 µg/mL; in assay [1] (setting [5]), over 50 µg/mL; in assay [1] (setting [6]), over 50 µg/mL; in the assay on Diplodia maydis (Dm) (setting [7]) it was over 50 µg/mL; in the assay on Diplodia maydis (Dm) (setting [8]), over 50 µg/mL. In addition, the IC90 is 10 µg/mL (≈ 16 µM) in the assay on Botrtyis cinerea (Bc) (setting [9]), over 50 µg/mL in the assay on Botrtyis cinerea (Bc) (setting [10]), 10 µg/mL (≈ 16 µM) in [2] (setting [13]) and over 50 µg/mL in assay [2] (setting [14]). For the same compound, the IC50 at human (hACC2) (Table 2a) was 10 to 40 nM; against human (hACC2) (Table 2b, additional results) it was 10 to 40 nM. For the same compound, the MIC was 2.1 to 4 µg/mL (≈ 3.36 to 6.4 µM) in the assay on C. albicans (setting [11]); 1.01 to 2 µg/mL (≈ 1.62 to 3.2 µM) with C. albicans (setting [12]); 2.1 to 4 µg/mL (≈ 3.36 to 6.4 µM) with C. parapsilosis (setting [15]); 1.01 to 2 µg/mL (≈ 1.62 to 3.2 µM) in the assay with C. parapsilosis (setting [16]); 2.1 to 4 µg/mL (≈ 3.36 to 6.4 µM) in the assay with C. krusei (setting [17]); 2.01 to 4 µg/mL (≈ 3.22 to 6.4 µM) in the assay on C. krusei (setting [18]).

As to `COc1ccc(F)cc1[C@H](Cn1c(=O)n(C(C)(C)C(=O)N2CCCCC2)c(=O)c2c(C)c(-n3nccn3)sc21)OC1CCOCC1` [Compound I-24, (R)-1-(2-(5-fluoro-2-methoxyphenyl)-2-((tetrahydro-2H-pyran-4-yl)oxy)ethyl)-5-methyl-3-(2-methyl-1-oxo-1-(piperidin-1-yl)propan-2-yl)-6-(2H-1,2,3-triazol-2-yl)thieno[2,3-d]pyrimidine-2,4(1H,3H)-dione], the IC90 is 0.08 µg/mL (≈ 0.122 µM) in the assay with Rhizoctonia solani (Rs) (setting [3]); 0.08 µg/mL (≈ 0.122 µM) with Rhizoctonia solani (Rs) (setting [4]); over 50 µg/mL in assay [1] (setting [5]); over 50 µg/mL in assay [1] (setting [6]); 0.08 µg/mL (≈ 0.122 µM) in the assay with Diplodia maydis (Dm) (setting [7]); 0.08 µg/mL (≈ 0.122 µM) in the assay with Diplodia maydis (Dm) (setting [8]). For the same compound, the IC90 (in the assay on Botrtyis cinerea (Bc) (setting [9]); in the assay with Botrtyis cinerea (Bc) (setting [10]); in assay [2] (setting [13]); in [2] (setting [14])) was 0.4 µg/mL (≈ 0.611 µM) each time. In addition, the IC50 lay within 10 to 40 nM against human (hACC2) (Table 2a) and 10 to 40 nM against human (hACC2) (Table 2b, additional results). Further, the MIC in the assay with C. albicans (setting [11]), with C. albicans (setting [12]), with C. parapsilosis (setting [15]), with C. parapsilosis (setting [16]), with C. krusei (setting [17]) and in the assay on C. krusei (setting [18]) was 0.25 to 1 µg/mL (≈ 0.382 to 1.53 µM) throughout.

The values are drawn from US10800791B2, “Triazole ACC inhibitors and uses thereof” (Gilead Apollo, LLC, priority 2015, dated 2020).
